Test results published in PubChem BioAssay AID1745844 (Carcinogenic Potency Database (CPDB), 2022).
“And” between values parts separate entries of the source, which are not always exact repeats. Identical values can stand only once. The source made the active and inactive calls. How the calls were made is not given here.

System: rodent lifetime carcinogenesis bioassay, tumor incidence TD50
Assay: carcinogenic potency in animals, long-term in vivo studies, CPDB compilation (AID 1745844)

**Q.** With CCC(Br)(CC)C(=O)NC(N)=O as the compound, how does the TD50 (mouse, strain B6C3F1, females, in feed, site: any site (literature study), lesion: several types, types named in the paper, dosed 78 weeks, study length 104 weeks) read?
**A.** 5320 mg/kg/day

**Q.** And the TD50 (mouse, strain B6C3F1, females, in feed, site: liver, lesion: hepatocellular adenoma + hepatocellular carcinoma + neoplastic nodule, dosed 78 weeks, study length 104 weeks)?
**A.** 1950 mg/kg/day

**Q.** And the TD50 (mouse, strain B6C3F1, females, in feed, site: lung, lesion: alveolar/bronchiolar adenoma + alveolar/bronchiolar carcinoma, dosed 78 weeks, study length 104 weeks)?
**A.** 553 mg/kg/day (inactive) and 553 mg/kg/day

**Q.** And the carcinogen call (mouse, strain B6C3F1, males, in feed, site: any site (literature study), lesion: several types, types named in the paper, dosed 78 weeks, study length 104 weeks)?
**A.** negative (inactive)

**Q.** What about the TD50 (mouse, strain B6C3F1, males, in feed, site: liver, lesion: hepatocellular adenoma + hepatocellular carcinoma + neoplastic nodule, dosed 78 weeks, study length 104 weeks) of the same compound?
**A.** 1580 mg/kg/day

**Q.** And the carcinogen call (rat, strain Fischer 344, females, in feed, site: any site (literature study), lesion: several types, types named in the paper, dosed 103 weeks, study length 104 weeks)?
**A.** negative (inactive)

**Q.** What about the TD50 (rat, strain Fischer 344, males, in feed, site: any site (literature study), lesion: several types, types named in the paper, dosed 103 weeks, study length 104 weeks) of the same compound?
**A.** 1030 mg/kg/day (inactive)

**Q.** What does the source list for O=NN1CCOCC1?
**A.** TD50 (hamster, strain Syrian Golden, females, in drinking water, site: any site (literature study), lesion: several types, types named in the paper, dosed 104 weeks, study length 104 weeks): 1.48 mg/kg/day; TD50 (hamster, strain Syrian Golden, females, in drinking water, site: larynx, lesion: several types, types named in the paper, dosed 104 weeks, study length 104 weeks): 15.4 mg/kg/day; TD50 (hamster, strain Syrian Golden, females, in drinking water, site: liver, lesion: several types, types named in the paper, dosed 104 weeks, study length 104 weeks): 51.6 mg/kg/day; TD50 (hamster, strain Syrian Golden, females, in drinking water, site: respiratory system, lesion: several types, types named in the paper, dosed 104 weeks, study length 104 weeks): 1.35 mg/kg/day; TD50 (hamster, strain Syrian Golden, females, in drinking water, site: trachea, lesion: mixed-cell mucoepidermoid papilloma, dosed 104 weeks, study length 104 weeks): 11.3 mg/kg/day; TD50 (hamster, strain Syrian Golden, males, in drinking water, site: any site (literature study), lesion: several types, types named in the paper, dosed 104 weeks, study length 104 weeks): 5.56 mg/kg/day; TD50 (hamster, strain Syrian Golden, males, in drinking water, site: larynx, lesion: several types, types named in the paper, dosed 104 weeks, study length 104 weeks): 11.5 mg/kg/day; TD50 (hamster, strain Syrian Golden, males, in drinking water, site: liver, lesion: several types, types named in the paper, dosed 104 weeks, study length 104 weeks): 9.14 mg/kg/day; TD50 (hamster, strain Syrian Golden, males, in drinking water, site: respiratory system, lesion: several types, types named in the paper, dosed 104 weeks, study length 104 weeks): 5.98 mg/kg/day; TD50 (hamster, strain Syrian Golden, males, in drinking water, site: trachea, lesion: mixed-cell mucoepidermoid papilloma, dosed 104 weeks, study length 104 weeks): 7.98 mg/kg/day; TD50 (rat, strain Fischer 344, females, in drinking water, site: adrenal medulla, lesion: pheochromocytoma, dosed 45 weeks, study length 126 weeks): 0.325 mg/kg/day; TD50 (rat, strain Fischer 344, females, in drinking water, site: adrenal medulla, lesion: pheochromocytoma, dosed 100 weeks, study length 126 weeks): 1.07 mg/kg/day; TD50 (rat, strain Fischer 344, females, in drinking water, site: esophagus, lesion: several types, types named in the paper, dosed 45 weeks, study length 126 weeks): 1.97 mg/kg/day; TD50 (rat, strain Fischer 344, females, in drinking water, site: esophagus, lesion: squamous-cell papilloma, dosed 45 weeks, study length 126 weeks): 2.53 mg/kg/day; TD50 (rat, strain Fischer 344, females, in drinking water, site: liver, lesion: hemangiosarcoma, dosed 45 weeks, study length 126 weeks): 0.666 mg/kg/day; TD50 (rat, strain Fischer 344, females, in drinking water, site: liver, lesion: hemangiosarcoma, dosed 50 weeks, study length 73 weeks): 0.348 mg/kg/day; TD50 (rat, strain Fischer 344, females, in drinking water, site: liver, lesion: hemangiosarcoma, dosed 100 weeks, study length 126 weeks): 0.63 mg/kg/day; TD50 (rat, strain Fischer 344, females, in drinking water, site: liver, lesion: hepatocellular carcinoma, dosed 45 weeks, study length 126 weeks): 0.564 mg/kg/day; TD50 (rat, strain Fischer 344, females, in drinking water, site: liver, lesion: hepatocellular carcinoma, dosed 50 weeks, study length 73 weeks): 0.0805 mg/kg/day; TD50 (rat, strain Fischer 344, females, in drinking water, site: liver, lesion: hepatocellular carcinoma, dosed 100 weeks, study length 126 weeks): 0.431 mg/kg/day; TD50 (rat, strain Fischer 344, females, in drinking water, site: liver, lesion: neoplastic nodule, dosed 45 weeks, study length 126 weeks): 1.28 mg/kg/day; TD50 (rat, strain Fischer 344, females, in drinking water, site: liver, lesion: neoplastic nodule, dosed 100 weeks, study length 126 weeks): 0.239 mg/kg/day; TD50 (rat, strain Fischer 344, females, in drinking water, site: liver, lesion: several types, types named in the paper, dosed 45 weeks, study length 126 weeks): 0.14 mg/kg/day; carcinogen call (rat, strain Fischer 344, females, in drinking water, site: liver, lesion: several types, types named in the paper, dosed 50 weeks, study length 73 weeks): positive; TD50 (rat, strain Fischer 344, females, in drinking water, site: liver, lesion: several types, types named in the paper, dosed 100 weeks, study length 126 weeks): 0.127 mg/kg/day; TD50 (rat, strain Fischer 344, females, in drinking water, site: thyroid gland, lesion: c-cell carcinoma, dosed 45 weeks, study length 126 weeks): 0.363 mg/kg/day; TD50 (rat, strain Fischer 344, females, in drinking water, site: thyroid gland, lesion: follicular-cell adenoma, dosed 100 weeks, study length 126 weeks): 0.581 mg/kg/day; TD50 (rat, strain Fischer 344, females, in drinking water, site: tongue, lesion: several types, types named in the paper, dosed 45 weeks, study length 126 weeks): 6.54 mg/kg/day; TD50 (rat, strain Fischer 344, females, in drinking water, site: tongue, lesion: squamous-cell papilloma, dosed 45 weeks, study length 126 weeks): 50.2 mg/kg/day; TD50 (rat, strain Fischer 344, females, in drinking water, site: tongue, lesion: squamous-cell papilloma, dosed 100 weeks, study length 126 weeks): 3.49 mg/kg/day

**Q.** For Cc1cccc(Nc2cc(Cl)nc(SCC(=O)NCCO)n2)c1C, which TD50 (mouse, strain CSb, females, in feed, site: liver, lesion: hepatocellular carcinoma, dosed 82 weeks, study length 82 weeks) is on record?
**A.** 44.6 mg/kg/day

**Q.** And the TD50 (rat, strain Fischer 344, males, in feed, site: liver, lesion: hepatocellular carcinoma, dosed 75 weeks, study length 82 weeks)?
**A.** 6.49 mg/kg/day

**Q.** For S=C=NCCCCCCc1ccccc1, which carcinogen call (rat, strain Fischer 344, males, in feed, site: colon, lesion: one or several types, types not named, dosed 55 weeks, study length 55 weeks) is on record?
**A.** negative (inactive)

**Q.** What about the carcinogen call (rat, strain Fischer 344, males, in feed, site: liver, lesion: hepatocellular adenoma, dosed 112 weeks, study length 112 weeks) of the same compound?
**A.** negative (inactive)

**Q.** And the carcinogen call (rat, strain Fischer 344, males, in feed, site: liver, lesion: hepatocellular carcinoma, dosed 112 weeks, study length 112 weeks)?
**A.** negative (inactive)

**Q.** And the carcinogen call (rat, strain Fischer 344, males, in feed, site: pancreas, exocrine, lesion: acinar-cell adenoma, dosed 112 weeks, study length 112 weeks)?
**A.** negative (inactive)

**Q.** What about the carcinogen call (rat, strain Fischer 344, males, in feed, site: pancreatic islets, lesion: islet-cell adenoma, dosed 112 weeks, study length 112 weeks) of the same compound?
**A.** negative (inactive)
